# Legend:
# Format in all cases: cell-based
# [1] = molecular target: T1, NLRP3 (Homo sapiens, UniProt Q96P20); test: THP-1 cells pyroptosis assay; parameters: Seed THP-1 cells (25,000 cells/well) containing 1.0 μg/ml LPS; host or cells: THP-1 cells; settings: 1.0 μg/ml LPS, nigericin 5 μM, resazurin readout
# Protocol: THP-1 cells (ATCC #TIB-202) were grown in RPMI containing L-glutamine (Gibco #11835) supplemented with 1 mM sodium pyruvate (Sigma #S8636) and penicillin (100 units/ml)/streptomycin (0.1 mg/ml) (Sigma #P4333) in 10% Fetal Bovine Serum (FBS) (Sigma #F0804). The cells were routinely passaged and grown to confluency (~10^6 cells/ml). On the day of the experiment, THP-1 cells were harvested and resuspended into RPMI medium (without FBS). The cells were then counted and viability (>90%) checked by Trypan blue (Sigma #T8154). Appropriate dilutions were made to give a concentration of 625,000 cells/ml. To this diluted cell solution was added LPS (Sigma #L4524) to give a […] Final Assay Concentration (FAC). 40 μl of the final preparation was aliquoted into each well of a 96-well plate. The plate thus prepared was used for compound screening.
# The following method step-by-step assay was followed for compound screening. • 1. Seed THP-1 cells (25,000 cells/well) containing 1.0 μg/ml LPS in 40 μl of RPMI medium (without FBS) in 96-well, black walled, clear bottom cell culture plates coated with poly-D-lysine (VWR #734-0317) • 2. Add 5 μl compound (8 points half-log dilution, with 10 μM top dose) or vehicle (DMSO 0.1% FAC) to the appropriate wells • 3. Incubate for 3 hours at 37° C., 5% CO2 • 4. Add 5 μl nigericin (Sigma #N7143) (FAC 5 μM) to all wells • 5. Incubate for 1 hr at 37° C., 5% CO2 • 6. At the end of the incubation period, spin plates at 300×g for 3 mins and remove supernatant • 7. Then add 50 μl of resazurin (Sigma #R7017) (FAC 100 μM resazurin in RPMI medium without FBS) and incubate plates for a further 1-2 hours at 37° C. and 5% CO2 • 8. Plates were read in an Envision reader at Ex 560 nm and Em 590 nm • 9. IC50 data is fitted to a non-linear regression equation (log inhibitor vs response-variable slope 4-parameters)
# [2] = molecular target: T1, NLRP3; test: Human whole blood IL-1β release assay; settings: 1 μg/ml LPS, nigericin 10 μM, IL-1β AlphaLisa
# Protocol: For systemic delivery, the ability to inhibit NLRP3 when the compounds are present within the bloodstream is of great importance. For this reason, the NLRP3 inhibitory activity of a number of compounds in human whole blood was investigated in accordance with the following protocol.
# Human whole blood in Li-heparin tubes was obtained from healthy donors from a volunteer donor panel. • 1. Plate out 80 μl of whole blood containing 1 μg/ml of LPS in 96-well, clear bottom cell culture plate (Corning #3585) • 2. Add 10 μl compound (8 points half-log dilution with 10 μM top dose) or vehicle (DMSO 0.1% FAC) to the appropriate wells • 3. Incubate for 3 hours at 37° C., 5% CO2 • 4. Add 10 μl nigericin (Sigma #N7143) (10 μM FAC) to all wells • 5. Incubate for 1 hr at 37° C., 5% CO2 • 6. At the end of the incubation period, spin plates at 300×g for 5 mins to pellet cells and remove 20 μl of supernatant and add to 96-well v-bottom plates for IL-1β analysis (note: these plates containing the supernatants can be stored at −80° C. to be analysed at a later date) • 7. IL-1β was measured according to the manufacturer protocol (Perkin Elmer-AlphaLisa IL-1 Kit AL220F-5000) • 8. IC50 data is fitted to a non-linear regression equation (log inhibitor vs response-variable slope 4-parameters)
# [3] = molecular target: T2, hERG cardiac potassium channel (Homo sapiens, UniProt Q12809); test: hERG screening assay (automated patch clamp, CHO crelox hERG cells); settings: CHO crelox hERG cells (CHO cells that express hERG), whole-cell patch clamp, 35-37° C.
# T2 construct: host or cells: CHO crelox hERG cell line (Chinese hamster)
# Excerpt: In the drug development process of small molecules, one of the most frequent adverse side effects, leading to the failure of drugs, is the cardiac arrhythmias. Such failure is often related to the capacity of the drug to inhibit the human ether-a-go-go-related gene (hERG) cardiac potassium channel. Having no or low inhibition of the hERG cardiac potassium channel is therefore considered as beneficial.
# The CHO crelox hERG cell line (ATCC reference Nr. PTA-6812, female Chinese hamster cells) was generated and validated at Roche. Ready-to-use frozen instant CHO-hERG cells were cryopreserved at Evotec (Germany) and used directly in the experiments.
# The extracellular solution contains (in mM): NaCl 150; KCl 4; CaCl2 1; MgCl2 1; HEPES 10; pH 7.2-7.4 with NaOH, osmolarity 290-330 mOsm. […]
# The effects of a compound on hERG K+-currents parameters will be evaluated at 2 concentrations in at least 4 cells.
# The hERG test is performed using automated patch clamp system SynchroPatch® 384 (Nanion Technologies GmbH, Germany). K+ currents are measured with the patch-voltage-clamp technique in the whole-cell configuration at 35-37° C. […]
# The amplitudes of IKhERG were recorded in each concentration of drug and they were compared to the vehicle control values (taken as 100%) to define fractional blocks. […]
# T1 sequence (Q96P20 whole entry): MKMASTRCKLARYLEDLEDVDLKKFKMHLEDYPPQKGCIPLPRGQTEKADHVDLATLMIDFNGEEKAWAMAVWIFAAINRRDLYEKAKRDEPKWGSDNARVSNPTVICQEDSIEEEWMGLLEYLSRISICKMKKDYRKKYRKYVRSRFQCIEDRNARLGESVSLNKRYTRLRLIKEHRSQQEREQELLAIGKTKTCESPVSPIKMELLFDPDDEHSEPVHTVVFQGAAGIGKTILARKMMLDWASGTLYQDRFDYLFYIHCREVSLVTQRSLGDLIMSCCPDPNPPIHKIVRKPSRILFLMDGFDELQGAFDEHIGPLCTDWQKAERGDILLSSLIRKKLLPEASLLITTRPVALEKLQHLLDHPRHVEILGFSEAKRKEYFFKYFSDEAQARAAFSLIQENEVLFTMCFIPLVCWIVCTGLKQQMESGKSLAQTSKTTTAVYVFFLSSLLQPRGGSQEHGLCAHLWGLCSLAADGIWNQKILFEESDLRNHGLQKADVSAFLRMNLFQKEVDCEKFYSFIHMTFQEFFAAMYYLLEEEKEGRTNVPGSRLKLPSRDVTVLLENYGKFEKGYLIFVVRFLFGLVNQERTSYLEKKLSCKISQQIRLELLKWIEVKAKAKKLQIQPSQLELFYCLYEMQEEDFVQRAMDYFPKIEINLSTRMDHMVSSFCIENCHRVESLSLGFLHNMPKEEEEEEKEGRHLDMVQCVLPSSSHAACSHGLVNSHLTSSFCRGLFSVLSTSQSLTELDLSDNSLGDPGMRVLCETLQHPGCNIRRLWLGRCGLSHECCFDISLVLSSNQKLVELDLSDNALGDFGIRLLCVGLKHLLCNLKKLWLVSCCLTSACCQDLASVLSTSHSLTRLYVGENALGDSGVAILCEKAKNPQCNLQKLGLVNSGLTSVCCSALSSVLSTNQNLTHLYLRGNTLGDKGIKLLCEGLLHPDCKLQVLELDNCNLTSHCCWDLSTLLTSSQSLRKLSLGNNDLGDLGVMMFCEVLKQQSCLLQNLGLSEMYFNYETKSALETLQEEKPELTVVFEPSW
# T2 sequence (Q12809 whole entry): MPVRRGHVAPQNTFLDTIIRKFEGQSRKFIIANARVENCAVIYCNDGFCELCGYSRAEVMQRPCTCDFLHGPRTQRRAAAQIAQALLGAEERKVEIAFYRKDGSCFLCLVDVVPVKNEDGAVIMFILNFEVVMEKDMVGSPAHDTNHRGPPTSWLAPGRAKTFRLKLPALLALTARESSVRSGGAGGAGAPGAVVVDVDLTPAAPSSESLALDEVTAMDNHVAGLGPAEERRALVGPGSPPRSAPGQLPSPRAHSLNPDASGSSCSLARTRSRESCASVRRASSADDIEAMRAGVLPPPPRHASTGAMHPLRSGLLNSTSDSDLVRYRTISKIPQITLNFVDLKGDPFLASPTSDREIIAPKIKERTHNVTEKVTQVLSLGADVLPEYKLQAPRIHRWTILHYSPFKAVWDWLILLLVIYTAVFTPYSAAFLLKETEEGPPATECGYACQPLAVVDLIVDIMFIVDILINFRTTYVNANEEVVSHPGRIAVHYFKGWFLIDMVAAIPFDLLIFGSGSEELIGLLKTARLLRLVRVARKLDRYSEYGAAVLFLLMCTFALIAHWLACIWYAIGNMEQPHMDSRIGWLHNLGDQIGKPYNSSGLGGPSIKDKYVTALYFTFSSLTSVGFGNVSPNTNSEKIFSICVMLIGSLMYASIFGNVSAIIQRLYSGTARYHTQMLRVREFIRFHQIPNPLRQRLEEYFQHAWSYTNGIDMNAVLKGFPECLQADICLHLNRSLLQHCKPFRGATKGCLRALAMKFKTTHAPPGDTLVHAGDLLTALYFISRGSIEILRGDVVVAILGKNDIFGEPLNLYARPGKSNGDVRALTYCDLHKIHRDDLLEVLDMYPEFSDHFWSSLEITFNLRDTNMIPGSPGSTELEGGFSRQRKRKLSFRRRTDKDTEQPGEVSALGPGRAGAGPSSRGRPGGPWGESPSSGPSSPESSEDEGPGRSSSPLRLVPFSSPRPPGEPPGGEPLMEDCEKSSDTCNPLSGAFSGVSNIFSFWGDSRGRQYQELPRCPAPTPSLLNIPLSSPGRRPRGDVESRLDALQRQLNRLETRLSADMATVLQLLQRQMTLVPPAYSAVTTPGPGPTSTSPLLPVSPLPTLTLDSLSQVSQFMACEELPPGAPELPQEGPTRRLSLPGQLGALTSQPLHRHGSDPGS
SMILES,IC50 [1],IC50 [2],IC20 [3]
"CCN1CCC[C@@H](Nc2nnc(-c3ccc(C(F)(F)F)cc3O)c(=O)n2C)C1 [Example 1, 3-[[(3R)-1-Ethyl-3-piperidyl]amino]-6-[2-hydroxy-4-(trifluoromethyl)phenyl]-4-methyl-1,2,4-triazin-5-one; Formic Acid]",616 nM,–,–
"CCN1CCC[C@@H](Nc2nnc(-c3c(C)cc(C(F)(F)F)cc3O)c(=O)n2C)C1 [Example 2, 3-[[(3R)-1-ethyl-3-piperidyl]amino]-6-[2-hydroxy-6-methyl-4-(trifluoromethyl)phenyl]-4-methyl-1,2,4-triazin-5-one]",31.3 nM,52 nM,> 10 µM
"CCN1CCC[C@@H](Nc2nnc(-c3c(C)cc4c(c3O)CCC4)c(=O)n2C)C1 [Example 3, 3-[[(3R)-1-Ethyl-3-piperidyl]amino]-6-(4-hydroxy-6-methyl-indan-5-yl)-4-methyl-1,2,4-triazin-5-one]",17 nM,41 nM,> 10 µM
"Cc1cc2c(c(O)c1-c1nnc(N[C@@H]3CCCN(CCO)C3)n(C)c1=O)CCC2 [Example 4, 3-[[(3R)-1-(2-Hydroxyethyl)-3-piperidyl]amino]-6-(4-hydroxy-6-methyl-indan-5-yl)-4-methyl-1,2,4-triazin-5-one]",248 nM,–,–
"CCN1CCC[C@@H](Nc2nnc(-c3c(C)cc4c(c3O)CCO4)c(=O)n2C)C1 [Example 5, 3-[[(3R)-1-Ethyl-3-piperidyl]amino]-6-(4-hydroxy-6-methyl-2,3-dihydrobenzofuran-5-yl)-4-methyl-1,2,4-triazin-5-one]",39 nM,33 nM,–
"CCN1CCC[C@@H](Nc2nnc(-c3c(C)cc(Cl)cc3O)c(=O)n2C)C1 [Example 6, 6-(4-Chloro-2-hydroxy-6-methyl-phenyl)-3-[[(3R)-1-ethyl-3-piperidyl]amino]-4-methyl-1,2,4-triazin-5-one]",33 nM,41 nM,–
